≈ marks a conversion by molar mass, not a printed value. *1 amine or outer side, *2 acyl side, *3 side chain or, on linkers, in order; H or OH if unused. Where a SMILES comes first, the peptide text is derived from it. Bridges are numbered along the chain shown (N, C = ends). [ ]: non-standard residue; d: D form. The star is where a group is joined. hTyr(3S-OH,4S-OH,3'-OSO3H) = N[C@H](C(=O)O)[C@H](O)[C@@H](O)c1ccc(O)c(OS(=O)(=O)O)c1; Orn(4R-OH,5R-OH) = O=C([C@H](C[C@@H](O)[C@@H](O)N[*:3])N[*:1])[*:2]; Pro(3S-OH,4S-Me) = C[C@H]1CN[C@H](C(=O)O)[C@H]1O; X1 = CCCCCOc1ccc(-c2cc(-c3ccc(C(=O)*)cc3)no2)cc1; Gln(3R-OH) = NC(=O)C[C@@H](O)[C@H](N)C(=O)O; Hyp = O=C(O)[C@@H]1C[C@@H](O)CN1
Assays:
Candida tropicalis = assay: Inhibition of chitin synthase extracted from Candida tropicalis ATCC 750 using UDP-GlcNAc as substrate assessed as inhibition rate at 300 ug/ml by TMB based microplate analyzer relative to control; conditions: dose 300.0 µg/ml
Cryptococcus neoformans [1] = assay: Antifungal activity against Cryptococcus neoformans ATCC 32719 assessed as inhibition of growth incubated for 24 hrs by two-fold serial dilution method; assay type: functional
Aspergillus flavus [2] = assay: Antifungal activity against Aspergillus flavus ATCC 16870 assessed as inhibition of growth incubated for 24 hrs by two-fold serial dilution method; assay type: functional
Aspergillus fumigatus [3] = assay: Antifungal activity against Aspergillus fumigatus GIMCC 3.19 assessed as inhibition of growth incubated for 24 hrs by two-fold serial dilution method; assay type: functional
Candida albicans [4] = assay: Antifungal activity against Candida albicans ATCC 76615 assessed as inhibition of growth incubated for 24 hrs by two-fold serial dilution method; assay type: functional
[5] = Inhibition of chitin synthase extracted from Candida tropicalis ATCC 750 using UDP-GlcNAc as substrate assessed as inhibition rate by TMB based microplate analyzer relative to control
Aspergillus fumigatus [6] = assay: Antifungal activity against Aspergillus fumigatus GIMCC 3.19 incubated for 24 hrs by half broth dilution based checkerboard method; assay type: functional
Aspergillus flavus [7] = assay: Antifungal activity against fluconazole-resistant Aspergillus flavus ATCC 16870 assessed as inhibition of fungal growth incubated for 24 to 72 hrs; assay type: functional; conditions: time 24-72 hrs
Cryptococcus neoformans [8] = assay: Antifungal activity against Cryptococcus neoformans ATCC 32719 incubated for 24 hrs by half broth dilution based checkerboard method; assay type: functional
Cryptococcus neoformans [9] = assay: Antifungal activity against fluconazole-resistant Cryptococcus neoformans ATCC 32719 assessed as inhibition of fungal growth incubated for 24 to 72 hrs; assay type: functional; conditions: time 24-72 hrs
Candida albicans [10] = assay: Antifungal activity against fluconazole-resistant Candida albicans ATCC 76615 assessed as inhibition of fungal growth incubated for 24 to 72 hrs; assay type: functional; conditions: time 24-72 hrs
Candida albicans [11] = assay: Antifungal activity against Candida albicans ATCC 76615 incubated for 24 hrs by half broth dilution based checkerboard method; assay type: functional
Aspergillus flavus [12] = assay: Antifungal activity against Aspergillus flavus ATCC 16870 incubated for 24 hrs by half broth dilution based checkerboard method; assay type: functional
Aspergillus fumigatus [13] = assay: Antifungal activity against fluconazole-resistant Aspergillus fumigatus GIMCC 3.19 assessed as inhibition of fungal growth incubated for 24 to 72 hrs; assay type: functional; conditions: time 24-72 hrs
Candida albicans [14] = assay: Antifungal activity against micafungin-resistant Candida albicans ATCC 76615 assessed as inhibition of fungal growth incubated for 24 to 72 hrs; assay type: functional; conditions: time 24-72 hrs

Row | Structure (SMILES) | inhibition (Candida tropicalis) | MIC (Cryptococcus neoformans [1]) | MIC (Aspergillus flavus [2]) | MIC (Aspergillus fumigatus [3]) | MIC (Candida albicans [4]) | IC50 [5] | MIC (Aspergillus fumigatus [6]) | MIC (Aspergillus flavus [7]) | MIC (Cryptococcus neoformans [8]) | MIC (Cryptococcus neoformans [9]) | MIC (Candida albicans [10]) | MIC (Candida albicans [11]) | MIC (Aspergillus flavus [12]) | MIC (Aspergillus fumigatus [13]) | MIC (Candida albicans [14])
1 | O=C(/C=C/C(=O)Nc1nccs1)Nc1ccc2c(c1)NC(=O)C1(CCNC1=O)C2 (racemic) | 55.8% | 32 µg/mL (≈ 77.8 µM) | 64 µg/mL (≈ 156 µM) | 32 µg/mL (≈ 77.8 µM) | 64 µg/mL (≈ 156 µM) | 441 µM | – | – | – | – | – | – | – | – | –
2 | O=C(/C=C/C(=O)Nc1ccc2c(c1)NC(=O)C1(CCNC1=O)C2)NCc1ccccc1 (racemic) | 49.5% | 16 µg/mL (≈ 38.2 µM) | 16 µg/mL (≈ 38.2 µM) | 64 µg/mL (≈ 153 µM) | 32 µg/mL (≈ 76.5 µM) | – | – | – | – | – | – | – | – | – | –
3 | O=C(CN1CCC(C(=O)Nc2nc3ccccc3s2)CC1)Nc1ccc2c(c1)NC(=O)C1(CCNC1=O)C2 (racemic) | 57.7% | 16 µg/mL (≈ 30 µM) | 32 µg/mL (≈ 60.1 µM) | 32 µg/mL (≈ 60.1 µM) | 64 µg/mL (≈ 120 µM) | 379 µM | – | – | – | – | – | – | – | – | –
4 | CCCCN(CCCC)C(=O)/C=C/C(=O)Nc1ccc2c(c1)NC(=O)C1(CCNC1=O)C2 (racemic) | 28.2% | 128 µg/mL (≈ 291 µM) | 256 µg/mL (≈ 581 µM) | 256 µg/mL (≈ 581 µM) | 256 µg/mL (≈ 581 µM) | – | – | – | – | – | – | – | – | – | –
5 | CCCCNC(=O)/C=C/C(=O)Nc1ccc2c(c1)NC(=O)C1(CCNC1=O)C2 (racemic) | 35.7% | 128 µg/mL (≈ 333 µM) | 64 µg/mL (≈ 166 µM) | 256 µg/mL (≈ 666 µM) | 128 µg/mL (≈ 333 µM) | – | – | – | – | – | – | – | – | – | –
6 | O=C(/C=C/C(=O)Nc1ccc2c(c1)NC(=O)C1(CCNC1=O)C2)Nc1ccccc1 (racemic) | 39.6% | 128 µg/mL (≈ 316 µM) | 64 µg/mL (≈ 158 µM) | 32 µg/mL (≈ 79.1 µM) | 64 µg/mL (≈ 158 µM) | – | – | – | – | – | – | – | – | – | –
7 | CCCCNC(=O)C1CCN(CC(=O)Nc2ccc3c(c2)NC(=O)C2(CCNC2=O)C3)CC1 (racemic) | 18.2% | 128 µg/mL (≈ 281 µM) | 64 µg/mL (≈ 140 µM) | 256 µg/mL (≈ 562 µM) | 256 µg/mL (≈ 562 µM) | – | – | – | – | – | – | – | – | – | –
8 | COc1ccccc1NC(=O)C1CCN(CC(=O)Nc2ccc3c(c2)NC(=O)C2(CCNC2=O)C3)CC1 (racemic) | 39.7% | 32 µg/mL (≈ 63.3 µM) | 32 µg/mL (≈ 63.3 µM) | 128 µg/mL (≈ 253 µM) | 64 µg/mL (≈ 127 µM) | – | – | – | – | – | – | – | – | – | –
9 | O=C(CN1CCC(C(=O)Nc2ccc(F)cc2)CC1)Nc1ccc2c(c1)NC(=O)C1(CCNC1=O)C2 (racemic) | 79.7% | 128 µg/mL (≈ 259 µM) | 32 µg/mL (≈ 64.8 µM) | 64 µg/mL (≈ 130 µM) | 128 µg/mL (≈ 259 µM) | – | – | – | – | – | – | – | – | – | –
10 | CCCCCCNC(=O)C1CCN(CC(=O)Nc2ccc3c(c2)NC(=O)C2(CCNC2=O)C3)CC1 (racemic) | 24% | 256 µg/mL (≈ 529 µM) | 256 µg/mL (≈ 529 µM) | 128 µg/mL (≈ 265 µM) | 128 µg/mL (≈ 265 µM) | – | – | – | – | – | – | – | – | – | –
11 | O=C(/C=C/C(=O)Nc1ccccc1Br)Nc1ccc2c(c1)NC(=O)C1(CCNC1=O)C2 (racemic) | 66.2% | 16 µg/mL (≈ 33.1 µM) | 32 µg/mL (≈ 66.2 µM) | 32 µg/mL (≈ 66.2 µM) | 32 µg/mL (≈ 66.2 µM) | 266 µM | – | – | – | – | – | – | – | – | –
12 | CCCCCNC(=O)/C=C/C(=O)Nc1ccc2c(c1)NC(=O)C1(CCNC1=O)C2 (racemic) | 37.9% | 256 µg/mL (≈ 642 µM) | 128 µg/mL (≈ 321 µM) | 128 µg/mL (≈ 321 µM) | 256 µg/mL (≈ 642 µM) | – | – | – | – | – | – | – | – | – | –
13 | OC(Cn1cncn1)(Cn1cncn1)c1ccc(F)cc1F [FLUCONAZOLE] | – | 8 µg/mL (≈ 26.1 µM) | 4 µg/mL (≈ 13.1 µM) | 4 µg/mL (≈ 13.1 µM) | 8 µg/mL (≈ 26.1 µM) | – | 4 µg/mL | 256 µg/mL (≈ 836 µM) | 8 µg/mL | 256 µg/mL (≈ 836 µM) | 256 µg/mL (≈ 836 µM) | 8 µg/mL | 4 µg/mL | 256 µg/mL (≈ 836 µM) | –
14 | CCCCCOc1ccc(-c2cc(-c3ccc(C(=O)N[C@H]4C[C@@H](O)[C@@H](O)NC(=O)[C@@H]5[C@@H](O)[C@@H](C)CN5C(=O)[C@H]([C@H](O)CC(N)=O)NC(=O)[C@H]([C@H](O)[C@@H](O)c5ccc(O)c(OS(=O)(=O)O)c5)NC(=O)[C@@H]5C[C@@H](O)CN5C(=O)[C@H]([C@@H](C)O)NC4=O)cc3)no2)cc1 [MICAFUNGIN] (X1-[Orn(4R-OH,5R-OH)]T[Hyp][hTyr(3S-OH,4S-OH,3'-OSO3H)][Gln(3R-OH)][Pro(3S-OH,4S-Me)]; lactam 1-C) | – | – | – | – | – | – | – | – | – | – | – | – | – | – | 256 µg/mL (≈ 202 µM)
